Data set [1] has as its target T1, PHD2 (Homo sapiens, UniProt Q9GZT9).
T1 construct: The catalytic domain of PHD2 (residues 181–426) was purified as described; made in house
The data set can be described thus: O2 dependence of PHD2-catalyzed hydroxylation (sealed vials, N2/O2 mixes). The format is biochemical. Particulars: PHD2 with the named 19-mer substrate; 4 μM PHD2, 50 μM Fe(II), 4 mM L-ascorbate, 50 mM HEPES pH 7.5, 37 °C, O2 levels set by mass flow controllers; triplicate assays; read-out: Km^app(O2). On the procedure: The O2 dependence of FIH-catalyzed reactions was determined by conducting enzymatic assays in an “In vivo 500 Hypoxia Workstation” (Ruskinn) using buffers pre-equilibrated under different pO2 values for 24 h. The O2 dependence of PHD2-catalyzed reactions was determined by conducting enzymatic assays in sealed glass vials with variable N2/O2 contents ([42]). Reactions were stopped by spotting samples onto a matrix-assisted laser desorption/ionization-time of flight mass spectrometry (MALDI-TOF-MS) target plate and immediately mixing with α-cyano-4-hydroxycinnamic acid matrix. Hydroxylation levels were assessed by MALDI-TOF-MS as described ([46]).
FIGURE 4. O2 dependence of FIH- and PHD2-catalyzed hydroxylation of HIF-1/2α. A, O2 dependence of PHD2-catalyzed hydroxylation of HIF-1/2α CODD/NODD 19-mer peptides. 4 μM PHD2, peptide (varied), 50 μM Fe(II), 2OG (varied), 4 mM L-ascorbate in HEPES 50 mM (pH 7.5) were incubated at 37 °C. The different O2 levels were maintained using mass flow controllers ([42]), and the hydroxylation levels were analyzed by MALDI-TOF-MS. B, O2 dependence of FIH-catalyzed hydroxylation of CAD HIF-1/2α 35-mer peptides. Conditions were as follows. 5 μM FIH, 500 μM peptide, 50 μM Fe(II), 1 mM 2OG, 1 mM L-ascorbate in HEPES 50 mM (pH 7.5) were incubated at 37 °C in a hypoxia work station under different pO2. […] Error bars, S.D. of triplicate assays.

Data set [2] addresses T2, FIH (Homo sapiens, UniProt Q9NWT6).
T2 construct: Full-length recombinant FIH, two- and three-consensus ankyrin repeats (2CA and 3CA) were produced as described; His6 (cleaved yes); made in house; host or cells: Escherichia coli BL21(DE3)
Kind of data set: Rapid quench-flow, FIH pre-steady-state product and succinate formation. Type of data set: biochemical. Particulars: for Rapid quench-flow kproduct / Rapid quench-flow ksuccinate: 0.5 mM apo-FIH, 0.4 mM Fe(II), 5 mM 2OG, 1 mM substrate, 50 mM HEPES pH 7.5, O2-saturated buffer 1:1, 5 °C, quenched with 1% CF3CO2H; for Rapid quench-flow kproduct: hydroxylation by MALDI-TOF-MS, 1–3 separate experiments; for Rapid quench-flow ksuccinate: succinate by LC-MS. On the procedure:
Rapid quench-flow experiments were performed using the same conditions and preparation of the assay mixture as used in stopped-flow experiments. Rapid quench-flow equipment (TgK Scientific Ltd.) in an anaerobic glove box was used for the experiments. Samples were quenched with 1% CF3CO2H and analyzed using MALDI-TOF-MS (peptide hydroxylation) as described above or liquid chromatography-mass spectrometry (LC-MS, for succinate production). For LC-MS, chromatographic separation was performed at 50 °C using a Waters ACQUITY BEH Amide 1.7-μm, 2.1 × 100-mm column on a Waters ACQUITY^TM ultraperformance liquid chromatography system (Waters Corp., Milford, MA). The following eluents were used: mobile phase A: 10% H2O, 90% acetonitrile (v/v), 10 mM ammonium formate; mobile phase B: 50% H2O, 50% acetonitrile (v/v), 10 mM ammonium formate. The elution gradient was 0–7.0 min linear from 10 to 30% B, and 7.0–9.0 min at 10% B for re-equilibration of the column. A constant flow rate of 0.4 ml/min was used. Analytes were detected in negative ionization mode using single reaction monitoring on a Quattro triple quadrupole mass spectrometer (Waters) with a cone voltage of 15 V and a capillary voltage of 3.0 kV. The desolvation temperature was set to 250 °C, and the source temperature was set to 120 °C.
FIGURE 9. Rapid quench-flow experiments showing FIH-catalyzed hydroxylation of HIF-1/2α CAD and ARD substrates. Reaction mixtures containing anaerobic 0.5 mM apo-FIH, 0.4 mM Fe(II), 5 mM 2OG, 1 mM peptide in HEPES 50 mM (pH 7.5) were rapidly mixed with O2-saturated buffer at 5 °C in a 1:1 ratio and then quenched with 1% CF3CO2H at defined time points. The data were fitted with the function, y = a·(1 − exp(−bx)) + c. Hydroxylation levels were assessed by MALDI-TOF-MS. A, hydroxylation of HIF-1α CAD, 1CA, and tankyrase-1 peptide substrates (19- and 20-mers); B, hydroxylation of HIF-1α, HIF-2α, and tankyrase-1 35-mer peptide substrates; C, hydroxylation of 1CA, 2CA, and 3CA. Data plotted were cumulatively acquired over the course of 1–3 separate experiments.

The nature of data set [3]: CD spectroscopy and thermal denaturation of 2CA and 3CA. Particulars: for secondary structure in solution by circular dichroism: 0.2 mg/ml protein in 10 mM sodium phosphate buffer pH 8.0 (Fig. 7), thermal denaturation 10 to 90 °C. The format is physicochemical. As for the experimental part:
CD spectra were recorded using a Chirascan CD/fluorimeter (Applied Photophysics) spectrometer. Measurements were carried out at 20 °C in a 0.1 cm path length quartz cuvette, with protein concentration of 0.125 mg/ml in 5 mM sodium phosphate buffer (pH 8.0). Spectra were recorded in the wavelength range of 260–190 nm at 0.5-nm intervals, and each spectrum represents an average of three scans. Spectra were baseline-corrected by subtraction of the buffer spectrum. Data were expressed as the mean residue ellipticity ([θ], degrees·cm^2·dmol^−1). Thermal denaturation experiments were performed under the same conditions. The ellipticity at 220 nm (θ220) was monitored from 10 to 90 °C.
FIGURE 7. CD spectroscopic comparison of 2CA and 3CA secondary structure. Thermal denaturation experiments of 2CA and 3CA are shown. Conditions were as follows. 0.2 mg/ml protein in 10 mM sodium phosphate buffer (pH 8.0) was studied at 222 nm for thermal denaturation experiments between 10 and 90 °C. A, melting curves of 2CA. B, spectra of 2CA between 260 and 190 nm at 10 °C, after heating to 90 °C and after cooling again to 10 °C. C, melting curves of 3CA. D, spectra of 3CA between 260 and 190 nm at 10 °C, after heating to 90 °C, where the α-helical structure is predominantly lost, and after cooling again to 10 °C, where the structure is largely regained.
On the technique in general: Circular dichroism is widely used to follow secondary structure.

Data on eight sequences can be found in paper PMC4528135, “Kinetic Investigations of the Role of Factor Inhibiting Hypoxia-inducible Factor (FIH) as an Oxygen Sensor” (The Journal of Biological Chemistry, 2015).

Several values for one entry are separate records, joined by “and”; a condition that tells them apart may be missing. Identical values can stand only once.

T2 sequence (Q9NWT6 whole entry): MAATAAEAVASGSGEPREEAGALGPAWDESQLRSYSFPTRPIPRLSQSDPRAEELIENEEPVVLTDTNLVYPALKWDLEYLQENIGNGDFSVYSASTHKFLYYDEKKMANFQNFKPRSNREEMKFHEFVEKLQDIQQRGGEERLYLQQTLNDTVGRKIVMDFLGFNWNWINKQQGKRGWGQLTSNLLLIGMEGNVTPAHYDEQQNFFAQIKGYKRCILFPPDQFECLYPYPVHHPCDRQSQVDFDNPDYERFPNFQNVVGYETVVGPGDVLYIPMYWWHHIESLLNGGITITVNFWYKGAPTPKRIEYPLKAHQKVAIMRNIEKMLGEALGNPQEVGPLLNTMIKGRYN
T1 sequence (Q9GZT9 181-426): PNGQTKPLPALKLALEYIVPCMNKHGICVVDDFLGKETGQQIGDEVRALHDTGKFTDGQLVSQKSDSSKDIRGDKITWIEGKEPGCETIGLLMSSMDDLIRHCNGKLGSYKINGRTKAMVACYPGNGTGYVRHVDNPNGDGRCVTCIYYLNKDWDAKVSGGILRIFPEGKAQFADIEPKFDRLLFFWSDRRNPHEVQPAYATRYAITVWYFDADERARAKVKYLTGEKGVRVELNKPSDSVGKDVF

With “EELAQLAPTPGDAIISLDF [HIF-2α NODD, 19-mer fragment (398–416) of the HIF-2α N-terminal oxygen-dependent degradation domain, PHD2 substrate]”, in data set [1], the Km (as a rule, the concentration of substrate that gives half-maximal velocity) was 410 ± 80 µM.
“DESGLPQLTSYDCEVNAPIQGSRNLLQGEELLRAL [HIF-1α CAD35-mer]”: in data set [2], the Rapid quench-flow kproduct worked out at 0.33 s⁻¹ and the Rapid quench-flow ksuccinate was determined as 0.3 ± 0.1 s⁻¹. In data set [2] (listed as CAD HIF-1α35-mer), this sequence gave a Rapid quench-flow kproduct of 0.33 ± 0.07 s⁻¹.
Regarding “ELDLETLAPYIPMDGEDFQ [HIF-2α CODD, 19-mer fragment (523–541) of the HIF-2α C-terminal oxygen-dependent degradation domain, PHD2 substrate]”, in data set [1], the Km was greater than 450 µM.
Regarding “AAGYNNLEVAEYLLEHGADVNAQDKGGLIPLHNAA [tnkrs-1_35-mer, 35-mer fragment of tankyrase-1, ARD substrate of FIH]”, the Rapid quench-flow kproduct came to 11 ± 3 s⁻¹ in data set [2] and 11 s⁻¹ in data set [2] (listed as tnkrs-1_35mer). For the same sequence, in data set [2], the Rapid quench-flow ksuccinate stood at 10 ± 3 s⁻¹. In addition, the “product formation rate, fold faster than for the 20-mer” value in data set [2] (rapid quench-flow, 5 °C) was roughly 7 fold.
With “SDKNGSTPLHLAARNGHLEVVKLLLEHGADVNAQDKWGKTAFDISIDNGNEDLAEILQ [2CA, recombinant two-consensus ankyrin repeat protein produced in Escherichia coli]”, the Rapid quench-flow kproduct in data set [2] was found to be 0.5 ± 0.1 s⁻¹. For the same sequence, the “secondary structure in solution by circular dichroism” value in data set [3] was “does not possess significant secondary structure”. The “temperature above which the protein is unfolded (CD)” value in data set [3] (thermal denaturation between 10 and 90 °C, sodium phosphate buffer pH 8.0) is greater than 10 °C.
With “GSHMGSDLGKKLLEAARAGQDDEVRILMANGADVAAKDKNGSTPLHLAARNGHLEVVKLLLEAGADVNAQDKFGKTAFDISIDNGNEDLAEILQ [3CA, recombinant three-consensus ankyrin repeat protein produced in Escherichia coli]”, the Rapid quench-flow kproduct in data set [2] was 0.051 s⁻¹ and 0.051 ± 0.001 s⁻¹. Besides, the “secondary structure in solution by circular dichroism” value in data set [3] is on record as “folded in solution”.
In data set [2], HLEVVKLLLEAGADVNAQDK [1CA20-mer] registered a Rapid quench-flow kproduct of 1.3 ± 0.2 s⁻¹ and a Rapid quench-flow ksuccinate of 0.8 ± 0.3 s⁻¹. In addition, the “product accumulation rate, fold faster than the reaction with HIF 35-mer substrates” value in data set [2] (rapid quench-flow, 5 °C) was roughly 10 fold.
On to “ESYLLPELTRYDCEVNVPVLGSSTLLQGGDLLRAL [HIF-2α CAD35-mer]”, for which, in data set [2], the Rapid quench-flow kproduct was 0.12 ± 0.01 s⁻¹ and the Rapid quench-flow ksuccinate was determined as 0.11 ± 0.03 s⁻¹.
